{
  "source": "patent US12139542B2",
  "about": "“Inhibitors of aortic carboxypeptidase-like protein (ACLP)” (TRUSTEES OF BOSTON UNIVERSITY, priority 2014, dated 2024)",
  "test_system": "ACLP",
  "assay": "siRNA knockdown of ACLP in differentiating primary lung fibroblasts (Western blot)",
  "type": "cell-based, mouse",
  "details": "primary lung fibroblasts transfected day 1 post-isolation, 2 nM siRNA, vs NTC siRNA",
  "method": "siRNA. Differentiating primary lung fibroblasts were transfected with 2 nM small interfering RNA (siRNA) targeting ACLP (Dharmacon) ([…]) (SEQ ID NO: 5) on either day 1 or day 2 post-isolation. Fully differentiated primary lung myofibroblasts were transfected at passage 2 or 3 with 2 nM siRNA targeting ACLP. Non-targeting control (NTC) siRNA ([…], […], […], […]) (SEQ ID NO: 6) was used as a control in all experiments. Transfections were performed using RNAiMAX (Invitrogen) according to manufacturer's instructions.\nKnockdown of ACLP slows and partially reverts the fibroblast to myofibroblast transition. To determine if ACLP was required for fibroblast to myofibroblast differentiation, siRNA was used to knockdown ACLP expression during myofibroblast differentiation. Freshly isolated wildtype primary lung fibroblasts were transfected on day 1 post-isolation with siRNA targeting ACLP (FIG. 2B) (3).",
  "data": [
    {"sequence": "GGCUCAAGAUCUACGCAAU (listed as RNA, chemistry not given here) [ACLP siRNA, small interfering RNA targeting mouse ACLP (Dharmacon)]", "values": [
      {"measurement": "reduction in ACLP protein expression", "result": 68, "unit": "%"},
      {"measurement": "reduction of Collagen I levels", "result": 5, "unit": "%"},
      {"measurement": "reduction in SMA protein expression", "setting": "statistically significant", "result": 63, "unit": "%"}
    ]}
  ]
}
